Measured values published in patent US20250000819A1, “Anti-hypoxic/anoxic injury use of a magnolol and/or honokiol aromatic ring amino-substituted derivative, and a pharmaceutical composition” (BEIJING HONGHUI MEDITECH CO., LTD., priority 2021, published 2025).

Experiments:
Type in all cases: in vivo, rat
[1] = test system: SD male rats, hypoxia (the oxygen content was 11%) treatment; assay: Blood gas analysis of femoral artery blood in hypoxia-treated rats
Description: 2. Animal model: SPF-grade SD male rats, 220-240 g of the weight, and hypoxia (the oxygen content was 11%) treatment. 3. Experimental grouping: a hypoxia treatment control group, there were 4 rats in each group; and a hypoxia treatment administration group, there were 4 rats in each group. 4. Administration mode: before the hypoxia treatment, a single intravenous injection was administered to each rat in the hypoxia treatment administration group. 5. […] 2. Animal model: SPF-grade SD male rats, 220-240 g of the weight, and hypoxia (the oxygen content was 11%) treatment. 3. Experimental grouping: a hypoxia treatment control group, there were 4 rats in each group; and a hypoxia treatment administration group, there were 4 rats in each group. 4. Administration mode: before the hypoxia treatment, a single intravenous injection was administered to each rat in the hypoxia treatment administration group. 5. […] 2. Animal model: SPF-grade SD male rats, 220-240 g of the weight, and hypoxia (the oxygen content was 11%) treatment. 3. Experimental grouping: a hypoxia treatment control group, there were 4 rats in each group; and a hypoxia treatment administration group, there were 4 rats in each group. 4. Administration mode: single gavage administration of each rat in the hypoxic treatment group prior to hypoxic treatment. 5. […] 2. Animal model: SPF-grade SD male rats, 220-240 g of the weight, and hypoxia (the oxygen content was 11%) treatment. 3. Experimental grouping: a hypoxia treatment control group, there were 4 rats in each group; and a hypoxia treatment administration group, there were 4 rats in each group. 4. Administration mode: before the hypoxia treatment, a single intravenous injection was administered to each rat in the hypoxia treatment administration group. 5. […] 2. Animal model: SPF-grade SD male rats, 220-240 g of the weight, and hypoxia (the oxygen content was 11%) treatment. 3. Experimental grouping: a hypoxia treatment control group, there were 4 rats in each group; and a hypoxia treatment administration group, there were 4 rats in each group. 4. Administration mode: before the hypoxia treatment, a single intravenous injection was administered to each rat in the hypoxia treatment administration group. 5. […]

[2] = test system: SD male rats, hypoxia (the oxygen content was 11%) treatment; assay: Respiratory rate evaluated during blood collection in hypoxia-treated rats; settings: p<0.05
Description: 2. Animal model: SPF-grade SD male rats, 220-240 g of the weight, and hypoxia (the oxygen content was 11%) treatment. 4. Administration mode: before the hypoxia treatment, a single intravenous injection was administered to each rat in the hypoxia treatment administration group. 6. Respiratory rate: the rat respiratory rate was evaluated during blood collection. 2. Animal model: SPF-grade SD male rats, 220-240 g of the weight, and hypoxia (the oxygen content was 11%) treatment. 4. Administration mode: before the hypoxia treatment, a single intravenous injection was administered to each rat in the hypoxia treatment administration group. 6. Respiratory rate: the rat respiratory rate was evaluated during blood collection. 2. Animal model: SPF-grade SD male rats, 220-240 g of the weight, and hypoxia (the oxygen content was 11%) treatment. 4. Administration mode: single gavage administration of each rat in the hypoxic treatment group prior to hypoxic treatment. 6. Respiratory rate: the rat respiratory rate was evaluated during blood collection. 2. Animal model: SPF-grade SD male rats, 220-240 g of the weight, and hypoxia (the oxygen content was 11%) treatment. 4. Administration mode: before the hypoxia treatment, a single intravenous injection was administered to each rat in the hypoxia treatment administration group. 2. Animal model: SPF-grade SD male rats, 220-240 g of the weight, and hypoxia (the oxygen content was 11%) treatment. 4. Administration mode: before the hypoxia treatment, a single intravenous injection was administered to each rat in the hypoxia treatment administration group. 6. Respiratory rate: the rat respiratory rate was evaluated during blood collection.

[3] = test system: lung tissues of SD rats, hypoxia (the oxygen content was 11%) treatment; assay: H&E staining / pathological analysis of lung tissue paraffin sections after hypoxia treatment; settings: 1 mg/kg single intravenous injection, after 24 h of hypoxia treatment
Description: 2. Animal model: SPF-grade SD male rats, 220-240 g of the weight, and hypoxia (the oxygen content was 11%) treatment. 4. Administration mode: before the hypoxia treatment, a single intravenous injection was administered to each rat in the hypoxia treatment administration group. 7. Hematoxylin-eosin (H&E) staining: Lung tissues of the hypoxia treatment (24 h) control group and the hypoxia treatment (24 h) administration group (dose: 1 mg/kg) were taken for paraffin section preparation, staining, and case analysis. 1) Paraffin sections were dewaxed to water: the sections were sequentially placed in xylene I for 20 min, xylene II for 20 min, anhydrous ethanol I for 5 min, anhydrous ethanol II for 5 min, and 75% alcohol for 5 min, and finally washed with tap water. 2) Hematoxylin staining: the sections were placed in hematoxylin staining solution and stained for 3-5 min, then washed with the tap water, and differentiated with differentiation solution, then washed with the tap water. It returned to blue by blue returning solution, and finally it was washed with running water. 3) Eosin staining: the sections were sequentially dehydrated with 85% and 95% of gradient alcohol for 5 min respectively, and placed in eosin staining solution and stained for 5 min. […]

C=CCc1cc(N)c(O)c(-c2ccc(O)c(CC=C)c2)c1 [Compound 1, 3′, 5-diallyl-3-amino-[1,1′-biphenyl]-2,4′-diol]
blood oxygen partial pressure (PO2) vs control group ([1]; 0.58 mg/kg single intravenous injection before hypoxia, after 24 h of hypoxia treatment, p=0.0012): significantly higher than those of the control group | blood oxygen saturation (SO2) vs control group ([1]; 0.58 mg/kg single intravenous injection before hypoxia, after 24 h of hypoxia treatment, p=0.019): significantly higher than those of the control group | respiratory rate (RR) vs control group ([2]; 0.58 mg/kg single intravenous injection, after 24 h of hypoxia treatment): lower than that of the control group, and the different was significant

C=CCc1cc(NC(=O)[C@@H](N)CCCCN)c(O)c(-c2ccc(O)c(CC=C)c2)c1.Cl.Cl [Compound 2, (S)-2,6-diamino-N-(3′,5-diallyl-2,4′-dihydroxy-[1,1′-biphenyl]-3-yl) hexanamide dihydrochloride]
blood oxygen saturation (SO2) vs control group ([1]; 0.25 mg/kg single intravenous injection, after 1 h of hypoxia treatment, p=0.023): higher than that of the control group, and the difference was significant | blood oxygen partial pressure (PO2) vs control group ([1]; 0.25 mg/kg single intravenous injection, after 1 h of hypoxia treatment, p=0.059): higher than that of the control group, but the difference was not significant | blood oxygen saturation (SO2) vs control group ([1]; 0.25 mg/kg single intravenous injection, after 6 h of hypoxia treatment, p=0.015): higher than those of the control group, and the difference was significant | blood oxygen partial pressure (PO2) vs control group ([1]; 0.25 mg/kg single intravenous injection, after 6 h of hypoxia treatment, p=0.018): higher than those of the control group, and the difference was significant | blood oxygen saturation (SO2) vs control group ([1]; 1 mg/kg single intravenous injection, after 6 h of hypoxia treatment, p=0.0012): higher than that of the control group, and the difference was significant | blood oxygen partial pressure (PO2) vs control group ([1]; 1 mg/kg single intravenous injection, after 6 h of hypoxia treatment, p=0.003): higher than that of the control group, and the difference was significant | blood oxygen saturation (SO2) vs control group ([1]; 1 mg/kg single intravenous injection, after 24 h of hypoxia treatment, p=0.001): higher than those of the control group, and the difference was significant | blood oxygen partial pressure (PO2) vs control group ([1]; 1 mg/kg single intravenous injection, after 24 h of hypoxia treatment, p=0.0012): higher than those of the control group, and the difference was significant | blood oxygen saturation (SO2) vs control group ([1]; 40 mg/kg single gavage (intragastric) administration, after 24 h of hypoxia treatment, p=0.016): higher than those of the control group, and the difference was significant | blood oxygen partial pressure (PO2) vs control group ([1]; 40 mg/kg single gavage (intragastric) administration, after 24 h of hypoxia treatment, p=0.036): higher than those of the control group, and the difference was significant | respiratory rate (RR) vs control group ([2]; 1 mg/kg single intravenous injection, after 6 h of hypoxia treatment): lower than that of the control group, and the difference was significant | respiratory rate (RR) vs control group ([2]; 1 mg/kg single intravenous injection, after 24 h of hypoxia treatment): lower than that of the control group, and the difference was significant | respiratory rate (RR) vs control group ([2]; 40 mg/kg single gavage (intragastric) administration, after 24 h of hypoxia treatment): lower than that of the control group, and the difference was significant | lung tissue injuries (H&E pathological analysis) vs control group [3]: able to alleviate the tissue injuries caused by hypoxia (anoxia)

C=CCc1cc(NC(=O)[C@@H](N)CCSC)c(O)c(-c2ccc(O)c(CC=C)c2)c1.Cl [Compound 3, (S)-2-amino-N-(3′,5-diallyl-2,4′-dihydroxy-[1,1′-biphenyl]-3-yl)-4-(methylthio) butanamide hydrochloride]
blood oxygen saturation (SO2) vs control group ([1]; 0.93 mg/kg single intravenous injection, after 24 h of hypoxia treatment, p=0.06): higher than that of the control group | respiratory rate (RR) vs control group ([2]; 0.93 mg/kg single intravenous injection, after 24 h of hypoxia treatment): lower than that of the control group, and the difference was significant

C=CCc1cc(NC(C)=O)c(O)c(-c2ccc(O)c(CC=C)c2)c1 [Compound 4, N-(3′,5-diallyl-2,4′-dihydroxy-[1,1′-biphenyl]-3-yl) acetamide]
blood oxygen saturation (SO2) vs control group ([1]; 0.67 mg/kg single intravenous injection, after 24 h of hypoxia treatment, p=0.0023): higher than those of the control group | blood oxygen partial pressure (PO2) vs control group ([1]; 0.67 mg/kg single intravenous injection, after 24 h of hypoxia treatment, p=0.023): higher than those of the control group | respiratory rate (RR) vs control group ([2]; 0.67 mg/kg single intravenous injection, after 24 h of hypoxia treatment): lower than that of the control group, and the difference was significant
